# Reference: patent EP1624029A1, “New Pyridinium imine based dyes and their use in optical layers for optical data recording” (CLARIANT INTERNATIONAL LTD., priority 2004, dated 2006)
# Experiment: DSC thermal decomposition
# Assay type: physicochemical
# Conditions: decomposition temperature by DSC
# Description: The optical and thermal properties of the pyridinium imine based dye compounds were studied. The dyes show high absorption at the desired wavelengths. In addition, the shape of the absorption spectra, that still remains critical to the disc reflectivity and formation of clean mark edges, are composed of one major band, comprised in a range of from 350 to 500 nm, preferably of from 350 to 400 nm. […] Sharp threshold of thermal decomposition within the required temperature range characterizes the new pyridinium imine based dyes which are assumed to be desirable for the application in optical layers for optical data recording. As a conclusion, the pyridinium imine based dye compounds are within the specifications which are primarily required by the industry for the use of dyes in optical data recording, in particular in the next-generation optical data recording media in the blue laser range.
structure (smiles),measurement,value
CC[n+]1ccccc1N=CC1C(=O)NC(=O)NC1=O [Example 1],DSC (decomp.),326 °C
